pIC50: −log10 of the molar value. Like-named read-outs stand apart in the source and are kept apart here. One block for each compound: values may come before it.
Key:
[1] = tested on: 5-HT1A receptor; conditions: cited from earlier work
[2] = tested on: synthesis of dopamine; experiment: Inhibition of dopa accumulation in GBL/NSD-1015-treated rats (dopamine autoreceptor agonism; Walters and Roth); type: in vivo, rats (male, Sprague-Dawley); conditions: sc, rat
From the text: The effect of the compounds of the invention on the synthesis of dopamine was established by the method of Walters and Roth, Naunyn-Schmiedeberg's Arch. […] Following perchloric acid extraction of the tissue, the extracts were placed over alumina columns to collect and concentrate dopa and other catechols. This eluate was then subjected to HPLC analysis using electrochemical detection to quantify the levels of dopa present. Dopamine autoreceptor agonists, under the conditions used above, inhibit dopa accumulation.

[3] = tested on: mouse locomotor activity; experiment: Reduction of mouse locomotor activity (Martin and Bendensky); type: in vivo, mice (male, CF-1); conditions: horizontal activity counts 10 to 20 minutes after dosing; for ED50: ip, read-out: Hypolocomotion (ED50 mg/kg, ip)
[4] = target: T1, dopamine D2 receptor (Rattus norvegicus, UniProt P61169); experiment: Dopamine D2 receptor affinity, 3H-spiroperidol binding in homogenized limbic brain tissue
T1 construct: homogenized limbic brain tissue is incubated with ^3 H-spiroperidol; from tissue; host or cells: homogenized limbic brain tissue
T1 sequence (P61169 whole entry): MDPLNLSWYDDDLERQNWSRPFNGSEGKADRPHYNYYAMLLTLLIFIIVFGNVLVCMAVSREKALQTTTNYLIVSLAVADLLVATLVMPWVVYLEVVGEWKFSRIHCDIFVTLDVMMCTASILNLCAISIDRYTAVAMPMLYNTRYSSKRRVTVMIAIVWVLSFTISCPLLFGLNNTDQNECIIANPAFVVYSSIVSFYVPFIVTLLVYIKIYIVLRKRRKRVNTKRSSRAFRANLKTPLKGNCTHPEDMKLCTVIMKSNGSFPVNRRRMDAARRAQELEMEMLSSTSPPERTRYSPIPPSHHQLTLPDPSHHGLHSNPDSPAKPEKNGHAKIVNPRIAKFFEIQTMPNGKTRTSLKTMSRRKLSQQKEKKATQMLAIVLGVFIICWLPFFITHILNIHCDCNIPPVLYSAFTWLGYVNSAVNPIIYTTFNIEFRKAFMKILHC

[5] = target: T2, serotonin 5-HT1A receptor (Rattus norvegicus, UniProt P19327); experiment: Serotonin 5-HT1A receptor affinity, displacement of [3H]8-OHDPAT; type: binding; conditions: for inhibition at 0.1 µM: read-out: Receptor Affinities 5-HT1A (% @ ( ) μM)
T2 construct: following the procedure of Hall et al., J. Neurochem; 44, 1685 (1985); from tissue
T2 sequence (P19327 1-422): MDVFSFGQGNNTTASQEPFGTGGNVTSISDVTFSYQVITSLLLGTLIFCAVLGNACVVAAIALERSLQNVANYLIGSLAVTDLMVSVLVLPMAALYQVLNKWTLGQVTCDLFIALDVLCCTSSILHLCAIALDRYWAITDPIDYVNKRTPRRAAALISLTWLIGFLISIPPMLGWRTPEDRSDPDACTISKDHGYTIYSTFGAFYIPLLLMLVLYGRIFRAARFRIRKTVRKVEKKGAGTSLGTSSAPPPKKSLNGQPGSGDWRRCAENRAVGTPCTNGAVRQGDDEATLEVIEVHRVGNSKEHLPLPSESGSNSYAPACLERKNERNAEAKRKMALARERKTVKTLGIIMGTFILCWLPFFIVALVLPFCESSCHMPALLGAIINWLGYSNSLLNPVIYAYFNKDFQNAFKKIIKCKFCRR
From the text: Affinity for the serotonin 5-HT1A receptor was established by testing the claimed compound's ability to displace [^3 H]8-OHDPAT (dipropylaminotetralin) from the 5-HT1A serotonin receptor following the procedure of Hall et al., J. Neurochem. 44, 1685 (1985). […] The anxiolytic activity of buspirone is believed to be, at least partially, due to its 5-HT1A receptor affinity (Vander Maclen et al., Eur. J. Pharmacol. 1986, 129 (1-2) 133-[…]).

[6] = limbic (L) brain tissue, read-out: Dopa Accumulation (% inhib. @ 10 mg/kg, sc), limbic (L)
[7] = striatal (S) brain tissue, read-out: Dopa Accumulation (% inhib. @ 10 mg/kg, sc), striatal (S)

SMILES: O=C1CC2(CCCC2)CC(=O)N1CCCCN1CCN(c2ncccn2)CC1 [buspirone]
affinity for the 5-HT1A serotonin receptor subtype ([1]; in words, standard for anxiolytic activity): potent affinity

SMILES: Nc1cccc(OCCCNCC2COc3c(O)cccc3O2)c1 (centres unmarked) [Example 6, N-[3-(3-Aminophenoxy)propyl]-2,3-dihydro-5-hydroxy-1,4-benzodioxin-2-methanamine]
inhibition at 10 mg/kg [2, 6]: 23%
inhibition at 10 mg/kg [2, 7]: 30%

SMILES: O=C1CC2(CCCC2)CC(=O)N1CCCCNCC1COc2ccccc2O1 (centres unmarked) [MDL 72832, 8-[4-(1,4-benzodioxan-2-ylmethylamino)butyl]-8-azaspiro[4.5]decane-7,9-dione]
5-HT1A receptor ligand character ([1]; in words, Fozard et al.): selective and stereospecific

SMILES: COc1cc2c(cc1OC)OC(CNCCCOc1cccc(N)c1)CO2 (centres unmarked) [Example 14, N-[3-(3-Aminophenoxy)propyl]-2,3-dihydro-6,7-dimethoxy-1,4-benzodioxin-2-methanamine]
inhibition at 10 mg/kg [2, 6]: 53.7%

SMILES: Nc1cccc(OCCCNC[C@H]2COc3ccc(O)cc3O2)c1 [Example 4, (S)-N-[3-(3-Aminophenoxy)propyl]-2,3-dihydro-7-hydroxy-1,4-benzodioxin-2-methanamine]
inhibition at 10 mg/kg [2, 6]: 70%
inhibition at 10 mg/kg [2, 7]: 71%
ED50 ([3]; Mus musculus): 0.08 mg/kg

inhibition at 1 µM ([4]; % at 1.0 μM, read-out: Receptor Affinities D2 (% @ ( ) μM)): 48%
inhibition at 0.1 µM [5]: 95%
SMILES: COc1ccc2c(c1)OC(CNCCCOc1cccc(N)c1)CO2 (centres unmarked) [Example 8, N-[3-(3-Aminophenoxy)propyl]-2,3-dihydro-7-methoxy-1,4-benzodioxin-2-methanamine]
inhibition at 10 mg/kg [2, 6]: 42.9%

SMILES: O=C1CC2(CCCC2)CC(=O)N1CCCCNCC1COc2ccccc2O1 (single isomer, unassigned; (-)) [(-)-MDL 72832]
binding at the 5-HT1A receptor site relative to the dextrorotary isomer ([1]; (-)-isomer versus dextrorotary isomer, Fozard et al.): 32 times

SMILES: Nc1cccc(OCCCNCC2COc3ccc(Cl)cc3O2)c1 (centres unmarked) [Example 13, N-[3-(3-Aminophenoxy)propyl]-2,3-dihydro-7-chloro-1,4-benzodioxin-2-methanamine]
inhibition at 10 mg/kg [2, 6]: 9.1%

SMILES: Cc1c(O)ccc2c1OC(CNCCCOc1cccc(N)c1)CO2 (centres unmarked) [Example 19, N-[3-(3-Aminophenoxy)propyl]-2,3-dihydro-7-hydroxy-8-methyl-1,4-benzodioxin-2-methanamine]
inhibition at 10 mg/kg [2, 6]: 21%

inhibition at 0.1 µM [5]: 100%
SMILES: Nc1cccc(OCCCNC[C@H]2COc3ccccc3O2)c1 [Example 9, (S)-N-[3-(3-Aminophenoxy)propyl]-2,3-dihydro-1,4-benzodioxin-2-methanamine]
ED50 [3]: 0.19 mg/kg

SMILES: Nc1cccc(OCCCNC[C@@H]2COc3ccc(O)cc3O2)c1 [Example 7, (R)-N-[3-(3-Aminophenoxy)propyl]-2,3-dihydro-7-hydroxy-1,4-benzodioxin-2-methanamine]
inhibition at 10 mg/kg [2, 6]: 27%
inhibition at 10 mg/kg [2, 7]: 19%
ED50 ([3]; Mus musculus): 1.34 mg/kg

SMILES: COc1ccc2c(c1OC)OCC(CNCCCOc1cccc(N)c1)O2 (centres unmarked) [Example 15, N-[3-(3-Aminophenoxy)propyl]-2,3-dihydro-5,6-dimethoxy-1,4-benzodioxin-2-methanamine]
inhibition at 10 mg/kg [2, 6]: 7.6%

SMILES: COc1ccc2c(c1)O[C@@H](CNCCCOc1cccc(N)c1)CO2 [Example 17, (S)-N-[3-(3-Aminophenoxy)propyl]-2,3-dihydro-7-methoxy-1,4-benzodioxin-2-methanamine]
inhibition at 10 mg/kg [2, 6]: 28%

pIC50 ([4]; read-out: Receptor Affinities D2 IC50): 6.28
pIC50 ([5]; read-out: Receptor Affinities 5-HT1A IC50): 8.40
SMILES: Nc1cccc(OCCCNCC2COc3ccccc3O2)c1 (centres unmarked) [Example 1, N-[3-(3-Aminophenoxy)propyl]-2,3-dihydro-1,4-benzodioxin-2-methanamine]
inhibition at 10 mg/kg [2, 6]: 33%
inhibition at 10 mg/kg [2, 7]: 46%
ED50 [3]: 0.38 mg/kg

inhibition at 0.1 µM [5]: 87%
SMILES: Nc1cccc(OCCCNCC2COc3ccc(F)cc3O2)c1 (centres unmarked) [Example 16, N-[3-(3-Aminophenoxy)propyl]-2,3-dihydro-7-fluoro-1,4-benzodioxin-2-methanamine]
inhibition at 10 mg/kg [2, 6]: 59.9%
ED50 [3]: 1.4 mg/kg

inhibition at 0.1 µM [5]: 54%
SMILES: Nc1cccc(OCCCNCC2COc3cc4c(cc3O2)OCO4)c1 (centres unmarked) [Example 10, N-[3-(3-Aminophenoxy)propyl]-2,3-dihydro-6,7-methylenedioxy-1,4-benzodioxin-2-methanamine]
inhibition at 10 mg/kg [2, 6]: 70.9%
ED50 [3]: 1.8 mg/kg

SMILES: COc1cccc2c1OCC(CNCCCOc1cccc(N)c1)O2 (centres unmarked) [Example 2, N-[3-(3-Aminophenoxy)propyl]-2,3-dihydro-5-methoxy-1,4-benzodioxin-2-methanamine]
inhibition at 10 mg/kg [2, 6]: -22%

SMILES: COc1cccc2c1OC(CNCCCOc1cccc(N)c1)CO2 (centres unmarked) [Example 11, N-[3-(3-Aminophenoxy)propyl]-2,3-dihydro-8-methoxy-1,4-benzodioxin-2-methanamine]
inhibition at 10 mg/kg [2, 6]: 13%

SMILES: Nc1cccc(OCCCNCC2COc3ccc(O)cc3O2)c1 (centres unmarked) [Example 3, N-[3-(3-Aminophenoxy)propyl]-2,3-dihydro-7-hydroxy-1,4-benzodioxin-2-methanamine]
inhibition at 10 mg/kg [2, 6]: 64%
inhibition at 10 mg/kg [2, 7]: 66%
ED50 ([3]; Mus musculus): 0.16 mg/kg
Hypolocomotion (ED50 mg/kg, ip) [3]: 0.15 mg/kg

SMILES: Nc1cccc(OCCCNCC2COc3cc(O)ccc3O2)c1 (centres unmarked) [Example 5, N-[3-(3-Aminophenoxy)propyl]-2,3-dihydro-6-hydroxy-1,4-benzodioxin-2-methanamine]
inhibition at 10 mg/kg [2, 6]: 31%
inhibition at 10 mg/kg [2, 7]: 30%

SMILES: Nc1cccc(OCCCNCC2COc3cccc(O)c3O2)c1 (centres unmarked) [Example 12, N-[3-(3-Aminophenoxy)propyl]-2,3-dihydro-8-hydroxy-1,4-benzodioxin-2-methanamine]
inhibition at 10 mg/kg [2, 6]: 17.4%

Reference: patent US5126366A, “Aminophenoxyalkyl derivatives of benzodioxan” (American Home Products Corporation, priority 1991, dated 1992)
